# In PMC7268545, “Development of a QPatch-Automated Electrophysiology Assay for Identifying TMEM16A Small-Molecule Inhibitors” (Assay and Drug Development Technologies, 2020):
# Read-outs that look alike come from different tables or passages of the source.
# How the values were obtained:
# [1] = target: T1, human ANO1 channel (isoform acd) (Homo sapiens, UniProt Q5XXA6); assay: QPatch-48 automated whole-cell electrophysiology, cumulative five-concentration single-addition protocol; type: cell-based
# T1 construct: host or cells: HEK293T
# T1 sequence (Q5XXA6 1-986): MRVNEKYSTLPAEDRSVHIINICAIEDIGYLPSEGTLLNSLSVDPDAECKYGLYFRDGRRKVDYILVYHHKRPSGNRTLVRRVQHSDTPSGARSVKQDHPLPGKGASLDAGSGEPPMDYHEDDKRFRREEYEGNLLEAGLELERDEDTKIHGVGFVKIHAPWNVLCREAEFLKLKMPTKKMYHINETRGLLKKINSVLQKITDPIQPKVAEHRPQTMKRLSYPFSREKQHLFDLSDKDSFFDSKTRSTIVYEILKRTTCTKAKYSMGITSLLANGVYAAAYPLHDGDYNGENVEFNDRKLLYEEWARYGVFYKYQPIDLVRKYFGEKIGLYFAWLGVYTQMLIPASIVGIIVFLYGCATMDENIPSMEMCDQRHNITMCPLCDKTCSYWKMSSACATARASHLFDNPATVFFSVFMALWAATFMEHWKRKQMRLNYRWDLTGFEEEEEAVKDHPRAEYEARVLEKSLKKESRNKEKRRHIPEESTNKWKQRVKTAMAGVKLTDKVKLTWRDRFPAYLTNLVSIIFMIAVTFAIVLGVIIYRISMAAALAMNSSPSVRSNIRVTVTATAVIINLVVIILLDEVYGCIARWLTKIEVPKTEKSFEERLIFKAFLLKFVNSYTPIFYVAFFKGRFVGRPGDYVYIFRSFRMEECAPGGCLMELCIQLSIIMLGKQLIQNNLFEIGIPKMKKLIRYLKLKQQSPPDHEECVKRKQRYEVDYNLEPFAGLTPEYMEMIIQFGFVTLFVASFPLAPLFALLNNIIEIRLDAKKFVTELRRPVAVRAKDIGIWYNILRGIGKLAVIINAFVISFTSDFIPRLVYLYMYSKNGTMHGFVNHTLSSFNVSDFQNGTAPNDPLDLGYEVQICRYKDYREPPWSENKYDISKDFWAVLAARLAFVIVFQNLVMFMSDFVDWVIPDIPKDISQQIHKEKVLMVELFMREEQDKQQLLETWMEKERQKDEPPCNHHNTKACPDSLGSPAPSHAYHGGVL
# Protocol: HEK293T cells stably expressing the human ANO1 channel (isoform acd) were obtained from Scottish Biomedical. Cells were cultured in Sigma Minimum Essential Media containing 10% heat-inactivated fetal bovine serum, 1% penicillin/streptomycin, 1% glutamine, and […] geneticin. Cells were maintained in a 37°C, 5% CO2 environment. Cells were passaged every 3 days after they had reached ∼70% confluency and were not allowed to reach a density greater than 1–2 × 10^5 cells/cm^2 during routine culture. When subculturing, cells were rinsed once with room temperature 1 × phosphate-buffered saline (PBS; Ca^2+/Mg^2+ free), lifted with TrypLE Express, resuspended in prewarmed growth media, and counted using a hemocytometer. Cells were then plated in T150 flasks at a density of 2.9 × 10^4 cells/cm^2 to be either used in the assay or subcultured 72 h later.
# On the day of the experiment, cells plated at a density of 2.9 × 10^4 cells/cm^2 72 h prior should be ∼70%–80% confluent. After cells were rinsed with prewarmed 1 × PBS (Ca^2+/Mg^2+ free), 3 mL of room temperature Detachin solution (Genlantis) was added to the flask and tilted gently two to three times to cover all the cells. Approximately 2 mL of Detachin was aspirated from the flask, leaving 1 mL on the cells, and then placed in the 37°C incubator for 5 min. Once cells had rounded up, the cells were dislodged by tapping the flask gently. The cells were then resuspended in 5 mL of warm serum-free media (EX-CELL ACF CHO Medium; Sigma; supplemented with 4 mM L-glutamine and 10 mM HEPES). A glass Pasteur pipette with a rubber bulb was then used to gently dissociate the cells from one another. Detachin will often leave cells as doublets or clumps, conditions that will disrupt seal formation on the QPatch. The cells were triturated ∼30 times and then, still using the Pasteur pipette, transferred into the QPatch Cell Hotel. This ensures that cells detach from one another leaving a suspension of single cells. A QStirrer was added to the Cell Hotel and the cell suspension was immediately placed on the QPatch device. Cells were utilized within 15 min.
# Compounds were reconstituted in dimethyl sulfoxide (DMSO; Sigma) as 10 mM stock solutions. An automated dilution machine set up the microtiter plate (MTP ) by making 1:5 dilutions from a starting concentration of 30 μM. The concentration of DMSO was equal for all concentrations tested. Each MTP contained one row of a negative control (DMSO) and a positive control (benzbromarone). A total of eight compounds were run at a time. All compounds tested were produced in-house.
# Whole-cell patch-clamp experiments were performed on a QPatch-48-automated electrophysiology platform (Sophion Biosciences) using the 48-channel, single-hole QPlate (resistance 2.0 ± 0.4 MΩ). The external buffer (in mM) was 140 NaCl, 4 KCl, 2 CaCl2, 1 MgCl2, 10 HEPES, 10 glucose, pH 7.4 (osmolarity = 300), and the internal buffer (in mM) was 110 CsCl, 20 TEA-Cl, 5.374 CaCl2, 1.75 MgCl2, 10 EGTA, 10 HEPES, 4 Na2ATP, pH 7.2 (osmolarity = 310). Cell positioning was set to a 5-s wait time with a positioning pressure of −60 mbar and a positioning time-out of 60 s. Resistance was set to increase 750% to ensure the success of positioning. To obtain a seal, pressure was increased to −70 mbar with an allowed pressure of −130 to −20 mbar and a holding pressure of −20 mbar. The holding potential was set to −70 mV and a 240-s time-out was set. The minimum seal resistance was set to 0.02 GΩ. To go whole cell, five 1-s suction pulses were applied starting at −180 mbar and increasing with −40 mbar increments with a pulse period of 10 s. Suction ramp and voltage zap protocols were kept standard, according to the default HEK cell settings. […] The suction ramp order of use was set to 2 with a ramp amplitude of −450 mbar and a ramp slope of 100 ms/mbar.
# Once established in whole-cell configuration, cells are clamped to a holding potential (Vhold) of 0 mV.
# TMEM16A [2] = target: T2, TMEM16A (Homo sapiens, UniProt Q5XXA6); assay: fluorescence-based eYFP-quench assay; type: cell-based; conditions: iodide based assay
# T2 construct: expressed in transfected cells; host or cells: HEK293T-derived, doxycycline-inducible
# T2 sequence (Q5XXA6 1-986): T1 sequence (Q5XXA6 1-986)
# Excerpt: This was possibly due to the eYFP assay being iodide based, since it has been reported that the anion passing through the pore has an effect on the open state of the channel.[12] It is also impossible to control the intracellular calcium level in this assay, which could explain the discrepancy in potency.[37] […] There is clearly a need for an automated electrophysiology assay for TMEM16A, whether looking at activators or inhibitors. TMEM16A has proven to be a difficult channel for electrophysiology, owing to its fast rundown, small currents, and the fact that it is a ligand-gated channel. In addition, fluoride, typically used in automated patch-clamp assays to improve seal quality, is known to decrease calcium salt solubility. Therefore, a fluoride-free internal solution is preferable when trying to control for a precise internal calcium concentration.
# [3] = set-up: method as in PMID 28493701; conditions: cited from earlier work
# TMEM16A [4] = target: T2, TMEM16A; set-up: method as in PMID 24642630; conditions: read-out: reported IC50; cited from earlier work
# [5] = independent experiment 1, block at +100 mV, 250 nM internal free-calcium, read-out: IC50s for independent experiments 1
# [6] = independent experiment 2, read-out: IC50s for independent experiments 2
# [7] = independent experiment 3, read-out: IC50s for independent experiments 3
# [8] = independent experiment 4, read-out: IC50s for independent experiments 4
"IC50 [1, 5] [µM]","IC50 [1, 6] [µM]","IC50 [1, 7] [µM]","IC50 [1, 8] [µM]",Compound,also measured
1.18,0.85,1.1,1.57,N#Cc1c(C(F)(F)F)cc(O)n2c1nc1ccccc12 [1PBC],"potency relative to that reported ([1]; versus reported value, ref 36 (mouse TMEM16A)): ~10 times; inhibition in eYFP-quench assay (TMEM16A [2]): 40%"
–,–,–,–,COc1ccccc1/C=N/NC(=O)COc1ccc(Cl)cc1C [Ani9],metabolic stability [3]: metabolically unstable
5.29,4.62,8.45,11.1,O=C(O)c1cccnc1Nc1cccc(C(F)(F)F)c1 [Niflumic acid],"IC50 ([1]; full plate format (with rundown), n = 3, read-out: IC50, full plate): 3.89 ± 0.11 µM; IC50 ([1]; independent experiment 5, read-out: IC50s for independent experiments 5): 7.71 µM; effect on deactivation rate ([1]; tail current deactivation): slower deactivation rate; IC50 (TMEM16A [4]): 12 µM"
–,–,–,–,CCc1c(C)nc(SCC(=O)Nc2nc(-c3ccc(OC)cc3)cs2)[nH]c1=O [T16Ainh-A01],block of current ([1]; maximum block seen): ≤ 40%
